According to PMC11313193, “Which Constituents Determine the Antioxidant Activity and Cytotoxicity of Garlic? Role of Organosulfur Compounds and Phenolics” (International Journal of Molecular Sciences, 2024):

Key:
[1] = Ferric reducing antioxidant power (FRAP) assay; settings: 30 min at ambient temperature, pH 3.6, absorbance at 593 nm
Protocol: The method proposed by Benzie and Strain [91] was employed with a slight modification. Briefly, increasing volumes of solutions of the studied compounds were added to wells of a 96-well microplate prefilled with 200 μL of the working solution composed of 0.3 M acetate buffer, pH 3.6 (10 volumes), 10 mM 2,4,6-tris(2-pyridyl)-s-triazine (TPTZ), in 40 mM HCl (1 volume) and 20 mM FeCl3 (1 volume), was prepared immediately before use. After 30 min incubation at ambient temperature and the absorbance of the Fe^2+-TPTZ complex was read at 593 nm.
(§1) All assays were standardized with respect to Trolox. The antioxidant activity was calculated in each case as a ratio of the slope of the dependence of absorbance change on the concentration of a studied compound to the slope of the dependence of absorbance change of standard samples concerning Trolox on the concentration of Trolox. Antioxidant activities were expressed in moles of Trolox equivalents (TE)/mol of a studied compound, as described previously.

[2] = DPPH^● decolorization assay; settings: 30 min at ambient temperature in the dark, absorbance at 517 nm
Protocol: The assay was performed as described in a previous article. Briefly, increasing volumes of solutions of the studied compounds were introduced to wells of a 96-well microplate, each with 200 μL of 0.3 mM DPPH^● solution in methanol. The reaction was allowed to proceed for 30 min at ambient temperature in the dark, and absorbance at 517 nm was read. The absorbance decrease was a measure of the antioxidant activity.
as §1

MRC-5 fibroblasts = experiment: Cytotoxicity (Neutral Red), MRC-5 fibroblasts; type: cell-based, human; settings: 24 h exposure
Protocol: (§2) The PEO1 cells, SKOV-3 cells, and MRC-5 cells were grown at 37 °C and 5% CO2 in RPMI + GlutaMAX medium, McCoy’s 5A medium, and the DMEM + GlutaMAX medium, respectively. The media were supplemented with 10% heat-inactivated fetal calf serum and penicillin/streptomycin. The cell viability was evaluated using the Trypan Blue exclusion test.
(§3) In the cytotoxicity experiments, cells were grown in wells of sterile 96-well plates. The seeding density was 1 × 10^4 for SKOV-3 and MRC-5 cells and 1.5 × 10^4 for PEO1 cells. The cells were allowed to grow in the incubator for 24 h. Then, the medium was removed and new medium with an examined compound was added. The stock solutions of the compounds studied diluted with the appropriate cell medium were filtered before the addition to the cells using 0.22 µm filters. No more than 0.02% of DMSO was present in the media, and it had no discernible impact on the treated cells. Cells not exposed to any compound served as a control. After another 24 h incubation, the medium was gently aspirated, and the wells were added with 2% sterile Neutral Red solution (100 µL). The plates were then incubated (37 °C, 5% CO2) for one hour. The Neutral Red solution was aspirated, and the wells were washed two times with warm (37 °C) PBS. Subsequently, 100 µL of a permeabilization mixture (water/ethanol/glacial acetic acid, 50/49/1, v/v/v) was introduced to each well. The plates were shaken at 700 rpm for 20 min and absorbance was read at a wavelength of 540 nm against 620 nm.

[3] = ABTS^● decolorization assay; settings: 30 min incubation at room temperature, absorbance at 734 nm
Protocol: A modification of the ABTS^● decolorization assay was employed. Briefly, various volumes of solutions of the studied compounds were introduced to wells of a 96-well microplate, each prefilled 200 μL of ABTS^● solution. […] The drop in absorbance after 30 min incubation at room temperature was read as a measure of the antioxidant activity.
as §1

[4] = test system: SKOV-3 ovarian cancer cells; experiment: Cytotoxicity (Neutral Red), SKOV-3 cells; type: cell-based, human; settings: 24 h exposure
Protocol: as §2, §3

[5] = test system: PEO1 ovarian cancer cells; experiment: Cytotoxicity (Neutral Red), PEO1 cells; type: cell-based, human; settings: 24 h exposure
Protocol: as §2, §3

[6] = test system: cervical cancer HeLa cells; set-up: method as in PMID 21199742; settings: after 24 h exposure; read-out: Concentration decreasing the viability of HeLa cells by 50%; cited from earlier work
MDA-MB-231 cells [7] = test system: MDA-MB-231 cells; set-up: method as in PMID 29048370; settings: read-out: Concentration decreasing the viability of MDA-MB-231 cells (by 50%); cited from earlier work
[8] = test system: HT-1080 fibrosarcoma cells; set-up: method as in PMID 21116690; settings: read-out: Concentration decreasing the viability of HT-1080 cells (by 50%); cited from earlier work
[9] = test system: PC-3 prostate cancer cells; set-up: method as in PMID 26124008; settings: read-out: Concentration decreasing viability of PC-3 cells to 50%; cited from earlier work
[10] = test system: LNCaP prostate cancer cells; set-up: method as in PMID 26124008; settings: read-out: Concentration decreasing viability of LNCaP cells to 50%; cited from earlier work
osteosarcoma 143B cells = test system: osteosarcoma 143B cells; set-up: method as in PMID 27158383; settings: after 48 h; read-out: Concentration decreasing viability of 143B cells to 50%; cited from earlier work
osteosarcoma MG63 cells = test system: osteosarcoma MG63 cells; set-up: method as in PMID 27158383; settings: after 48 h; read-out: Concentration decreasing viability of MG63 cells to 50%; cited from earlier work
MDA-MB-231 cells [11] = test system: MDA-MB-231 cells; set-up: method as in PMID 27177074; settings: 100 μM; cited from earlier work

Compound	Antioxidant activity, FRAP [1]	Antioxidant activity, DPPH^● Decolorization [2]	Concentration at which viability of MRC-5 cells was lowered (MRC-5 fibroblasts; p < 0.05)	Antioxidant activity, ABTS^● Decolorization [3]	Concentration range with no significant decrease in viability of SKOV-3 cells [4]	IC50 ([4]; Homo sapiens, SK-OV-3, Neutral Red, read-out: IC50 SKOV-3)	Concentration at which viability of PEO1 cells was lowered ([5]; p < 0.05)	IC50 ([5]; Homo sapiens, PEO1, Neutral Red, read-out: IC50 PEO1)	IC50 [6]	IC50 (MDA-MB-231 cells [7])	IC50 [8]	IC50 [9]	Concentration range with no significant decrease in viability of MRC-5 cells (MRC-5 fibroblasts)	IC50 [10]	IC50 (osteosarcoma 143B cells)	Concentration range with no significant decrease in viability of PEO1 cells [5]	IC50 (osteosarcoma MG63 cells)	Viability of MDA-MB-231 cells (decreased to) (MDA-MB-231 cells [11])
O=C(O)/C=C/c1ccc(O)c(O)c1 [Caffeic acid, caffeic acid]	0.019 ± 0.002 mol Trolox equivalents (TE)/mol compound	0.001 ± 0.006 mol Trolox equivalents (TE)/mol compound	1000 µM	0.771 ± 0.066 mol Trolox equivalents (TE)/mol compound	up to 1000 µM	1320 µM	300 to 1000 µM	245 µM	~2000 µM	151 µM	30 µM	–	–	–	–	–	–	–
COc1cc(/C=C/C(=O)O)ccc1O [Ferulic acid, ferulic acid]	0.554 ± 0.017 mol Trolox equivalents (TE)/mol compound	0.185 ± 0.070 mol Trolox equivalents (TE)/mol compound	–	1.409 ± 0.096 mol Trolox equivalents (TE)/mol compound	0 to 1000 µM	–	–	–	–	–	–	300 µM	0 to 1000 µM	500 µM	60 µM	0 to 1000 µM	66 µM	about 75%
